≈ marks a conversion by molar mass, not a printed value.
Columns and labels:
[1] = molecular target: 1,3-beta-glucan synthase (Candida glabrata, UniProt F5BCZ9); experiment: Inhibition of 1,3-beta-glucan synthase; design: species or system Candida glabrata CBS 138
[2] = tested on: Candida albicans; experiment: Tested for minimum fungicidal concentration (MFC) against Candida albicans (MY 1055); type: functional
[3] = tested on: Candida albicans; experiment: Tested for in vitro minimum fungicidal concentration (MFC) against C. albicans; 0.25-1; type: functional
[4] = tested on: Meyerozyma guilliermondii; experiment: Tested for in vitro minimum fungicidal concentration (MFC) against Candida guilliermondii 1-16; type: functional
[5] = tested on: Pichia kudriavzevii; experiment: Tested for in vitro minimum fungicidal concentration (MFC) against C. krusei; 2-4; type: functional
[6] = tested on: Kluyveromyces marxianus; experiment: Tested for in vitro minimum fungicidal concentration (MFC) againstC. pseudotropicalis; 0.25-1; type: functional
[7] = tested on: Nakaseomyces glabratus; experiment: Tested for in vitro minimum fungicidal concentration (MFC) against C. glabrata; 1-4; type: functional
[8] = tested on: Candida parapsilosis; experiment: Tested for in vitro minimum fungicidal concentration (MFC) against C. parapsilosis; 0.25-1; type: functional
[9] = tested on: Candida tropicalis; experiment: Tested for in vitro minimum fungicidal concentration (MFC) against C. tropicalis; 0.25-1; type: functional
[10] = tested on: Clavispora lusitaniae; experiment: Tested for in vitro minimum fungicidal concentration (MFC) against Candida lusitaniae 0.125-1; type: functional
[11] = tested on: Cryptococcus neoformans; experiment: Tested for in vitro minimum fungicidal concentration (MFC) against C. neoformans; 8-32; type: functional
[12] = organism: Mus musculus; experiment: […] anti-candida activity expressed as ED99.9 in a mouse model of disseminated candidiasis (TOKA); type: functional
[13] = tested on: Mus musculus; experiment: In vivo effective intraperitoneal dose to achieve least 50% survival in a mouse model of disseminated aspergillosis; type: functional; settings: ip
[14] = organism: Mus musculus; experiment: Percentage of mice with complete eradication of candida in kidneys; type: functional, Kidney
[15] = Acute toxicity in mice after intravenous administration; settings: mouse, in vivo

Sequence of 1,3-beta-glucan synthase (F5BCZ9 whole entry): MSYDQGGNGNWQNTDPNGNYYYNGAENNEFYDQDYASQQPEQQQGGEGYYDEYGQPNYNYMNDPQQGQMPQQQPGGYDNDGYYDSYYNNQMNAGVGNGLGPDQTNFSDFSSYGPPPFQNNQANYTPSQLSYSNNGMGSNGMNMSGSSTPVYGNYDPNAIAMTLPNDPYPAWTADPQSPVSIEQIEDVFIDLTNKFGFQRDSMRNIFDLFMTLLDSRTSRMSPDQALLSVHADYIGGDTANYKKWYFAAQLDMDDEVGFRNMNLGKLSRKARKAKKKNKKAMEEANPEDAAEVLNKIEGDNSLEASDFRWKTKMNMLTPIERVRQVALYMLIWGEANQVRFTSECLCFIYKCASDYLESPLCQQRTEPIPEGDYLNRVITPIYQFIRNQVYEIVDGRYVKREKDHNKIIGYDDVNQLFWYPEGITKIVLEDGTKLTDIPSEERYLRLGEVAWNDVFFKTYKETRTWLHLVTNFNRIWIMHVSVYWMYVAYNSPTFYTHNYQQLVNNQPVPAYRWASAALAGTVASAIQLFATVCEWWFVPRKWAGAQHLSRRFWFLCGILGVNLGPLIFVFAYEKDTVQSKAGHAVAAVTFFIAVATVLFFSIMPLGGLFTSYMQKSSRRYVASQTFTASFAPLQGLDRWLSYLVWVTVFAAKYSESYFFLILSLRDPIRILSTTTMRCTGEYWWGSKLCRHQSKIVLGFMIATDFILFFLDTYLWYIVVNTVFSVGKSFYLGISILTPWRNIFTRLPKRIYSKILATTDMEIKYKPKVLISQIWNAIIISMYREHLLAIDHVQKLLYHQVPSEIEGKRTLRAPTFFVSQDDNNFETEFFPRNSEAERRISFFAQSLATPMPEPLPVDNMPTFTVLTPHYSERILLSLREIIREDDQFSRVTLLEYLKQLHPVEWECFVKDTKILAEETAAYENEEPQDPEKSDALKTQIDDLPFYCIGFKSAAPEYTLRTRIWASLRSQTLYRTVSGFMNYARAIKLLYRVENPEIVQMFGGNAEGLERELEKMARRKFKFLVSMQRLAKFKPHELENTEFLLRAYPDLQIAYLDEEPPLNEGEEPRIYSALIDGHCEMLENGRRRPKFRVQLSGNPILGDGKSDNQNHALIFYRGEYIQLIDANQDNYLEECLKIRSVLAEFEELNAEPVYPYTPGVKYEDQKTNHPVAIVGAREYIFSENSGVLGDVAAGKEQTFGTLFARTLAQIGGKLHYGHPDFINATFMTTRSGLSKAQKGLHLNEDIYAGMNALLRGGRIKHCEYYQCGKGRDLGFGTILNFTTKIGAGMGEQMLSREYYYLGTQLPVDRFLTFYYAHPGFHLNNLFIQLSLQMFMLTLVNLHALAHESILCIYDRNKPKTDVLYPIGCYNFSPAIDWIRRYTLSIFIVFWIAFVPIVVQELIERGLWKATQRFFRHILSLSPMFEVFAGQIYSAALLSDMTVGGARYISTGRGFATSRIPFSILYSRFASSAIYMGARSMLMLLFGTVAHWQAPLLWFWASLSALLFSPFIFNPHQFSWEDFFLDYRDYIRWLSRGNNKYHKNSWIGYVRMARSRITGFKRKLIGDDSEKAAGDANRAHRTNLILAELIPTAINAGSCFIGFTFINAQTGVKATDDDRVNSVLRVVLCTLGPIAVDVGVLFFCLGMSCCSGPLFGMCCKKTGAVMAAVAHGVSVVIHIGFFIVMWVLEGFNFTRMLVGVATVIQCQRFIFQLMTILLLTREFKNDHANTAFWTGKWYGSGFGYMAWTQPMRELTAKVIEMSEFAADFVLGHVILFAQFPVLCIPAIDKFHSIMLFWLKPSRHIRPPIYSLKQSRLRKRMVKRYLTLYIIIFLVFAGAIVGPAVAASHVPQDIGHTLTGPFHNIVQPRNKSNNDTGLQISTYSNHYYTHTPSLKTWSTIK

CCC(C)CC(C)CCCCCCCCC(=O)NC1C[C@@H](O)[C@@H](OCCN)NC(=O)C2CN(C[C@@H]2O)C(=O)[C@H]([C@H](O)CCNC(=O)[C@@H](N)CCCN)NC(=O)[C@H]([C@H](O)[C@@H](O)c2ccc(O)cc2)NC(=O)C2C[C@@H](O)CN2C(=O)[C@H]([C@@H](C)O)NC1=O (stereo not given in full)
IC50 [1]: 1.5 nM | MFC [2]: < 0.06 µg/mL | MFC90 [3]: 1 µg/mL (≈ 0.827 µM) | MFC90 [4]: 8 µg/mL (≈ 6.62 µM) | MFC90 [5]: 4 µg/mL (≈ 3.31 µM) | MFC90 [6]: 1 µg/mL (≈ 0.827 µM) | MFC90 [7]: 2 µg/mL (≈ 1.65 µM) | MFC90 [8]: 1 µg/mL (≈ 0.827 µM) | MFC90 [9]: 1 µg/mL (≈ 0.827 µM) | MFC90 [10]: 0.5 µg/mL (≈ 0.414 µM) | MFC90 [11]: 32 µg/mL (≈ 26.5 µM) | ED99.9 [12]: 0.09 mg/kg | ED50 [13]: 0.03 mg/kg | Sterilized [14]: 70% | Dose [15]: 80 mg/kg

— ChEMBL document CHEMBL1130502, “Lipopeptide antifungal agents: Amine conjugates of the semi-synthetic pneumocandins L-731,373 and L-733,560” (Bioorg Med Chem Lett, 1997)
